Test system: T1, TS-SNAP-A1AR
T1 construct: signal peptide of the murine 5HT3A receptor (N); expressed in transfected cells; receptor purified on MagStrep beads after labelling in cells
Assay: SDS-PAGE in-gel fluorescence of labeled TS-SNAP-A1AR
Type: cell-based
Conditions: HEK293G TS-SNAP-A1AR cells, 300 nM 11 or 130 nM 12 (then 1 μM Met-Tet-SulfoCy5), 2 h; band at ca. 59.1 kDa
Description: Figure 3 Molecular pharmacology and biochemical characterization of 11 and 12. NanoBRET ligand-binding data were measured in HEK293 cells stably expressing the human NL-A1AR (A–C) or rat NL-A1AR (D–F). […] Data were normalized to maximal BRET signals in the absence of unlabeled competing ligands (total binding, TB). (C, F) NanoBRET dissociation kinetics experiments with 11 (SulfoCy5) performed in human and rat NL-A1AR HEK293T cells, respectively. Cells were treated with 250 nM 11 (SulfoCy5, lilac open circles) for 5 h and CA200645 (black open triangles) for 2 h. […] TS-SNAP-A1AR was purified and separated on an SDS-PAGEgel gel, and direct Cy5 fluorescence was visualized using in-gel fluorescence. […]
The small reduction in the BRET signal observed toward the end of the reads could be mostly likely ascribed to substrate (furimazine) consumption. […] To confirm covalent labeling of A1AR by 11 and 12, HEK293G cells stably expressing a Twin-Strep-SNAP-A1AR(TS-SNAP-A1R) construct were treated with 11 or 12 prior to purification, separation by sodium dodecyl sulfate-polyacrylamide gel electrophoresis (SDS-PAGE) and visualization of labeled samples by in-gel fluorescence (Figure 3G). […]
Autocorrelation curves (AC) were constructed from fluorescence fluctuation traces and analysed within Zen Black (2012) software. […]

Structure (SMILES) | in-gel Cy5 fluorescence band of SulfoCy5-labeled TS-SNAP-A1AR
CCCCn1c(=O)c2[nH]c(C34CCC(C(=O)NCCNC(=O)CCNC(=O)c5ccc(OC(=O)CCCCC[N+]6=C(/C=C/C=C/C=C7/N(C)c8ccc(S(=O)(=O)O)cc8C7(C)C)C(C)(C)c7cc(S(=O)(=O)[O-])ccc76)c(F)c5)(CC3)CC4)nc2n(CCCC)c1=O [Compound 11, 1-(6-(4-((3-((2-(4-(1,3-Dibutyl-2,6-dioxo-2,3,6,7-tetrahydro-1H-purin-8-yl)bicyclo[2.2.2]octane-1-carboxamido)ethyl)amino)-3-oxopropyl)carbamoyl)-2-fluorophenoxy)-6-oxohexyl)-3,3-dimethyl-2-((1E,3E)-5-((E)-1,3,3-trimethyl-5-sulfoindolin-2-ylidene)penta-1,3-dien-1-yl)-3H-indol-1-ium-5-sulfonate] | strong band
CCCCn1c(=O)c2[nH]c(C34CCC(C(=O)NCCNC(=O)CCNC(=O)c5ccc(OC(=O)CCC(=O)NCCOCCOCCNC(=O)O[C@H]6CC/C=C/CCC6)c(F)c5)(CC3)CC4)nc2n(CCCC)c1=O [Compound 12, 4-((3-((2-(4-(1,3-Dibutyl-2,6-dioxo-2,3,6,7-tetrahydro-1H-purin-8-yl)bicyclo[2.2.2]octane-1-carboxamido)ethyl)amino)-3-oxopropyl)carbamoyl)-2-fluorophenyl (R,E)-1-(Cyclooct-4-en-1-yloxy)-1,12-dioxo-5,8-dioxa-2,11-diazapentadecan-15-oate] | strong band

From publication PMC11284787, “Ligand-Directed Labeling of the Adenosine A1 Receptor in Living Cells” (Journal of Medicinal Chemistry, 2024)
